Counter-ions that a name gives are not always drawn.
Experiments:
miR-96−/− mice = test: Mechanical pain threshold (Von Frey paw withdrawal threshold) of hind paws after intragastric administration; type: in vivo, mouse; details: 1 h after administration; for dose group exhibiting the best analgesic effect: three doses tested
Description: In order to screen an analgesic drug with excellent oral efficacy, analgesic effects of intragastric administration of Nav1.7 inhibitor and Nav1.8 inhibitor in eight 3-6-month-old miR-96^−/− mice ([…] BIOTECH LIMITED COMPANY) were tested.
Firstly, mechanical pain thresholds of hind paws of the miR-96^−/− mice were measured. The eight miR-96^−/− mice were placed on an iron frame and covered with a plexiglass cover. After 30 min, paw withdrawal thresholds (PWT) of the mice were measured using Von Frey (DanMic Global, CA, USA). […] 1 h after the intragastric administration of 30 μg/kg, 60 μg/kg or 90 μg/kg of PF-06305591, the mechanical pain thresholds of the hind paws of the miR-96″ mice were measured.

[1] = test system: subjects with painful diabetic peripheral neuropathy; details: McDonnell et al., Pain 2018; cited from earlier work

## Nc1n[nH]cc1-c1cc(Cl)ccc1Oc1cc(F)c(S(=O)(=O)Nc2cscn2)cc1Cl [PF-05089771, 4-[2-(3-amino-1H-pyrazol-4-yl)-4-chlorophenoxy]-5-chloro-2-fluoro-N-4-thiazolylbenzenesulfonamide tosylate]
miR-96−/− mice; 4 mg/kg intragastric
  analgesic effect versus solvent control group: significantly better than that of the solvent control group
miR-96−/− mice; 6 mg/kg intragastric
  analgesic effect versus solvent control group: significantly better than that of the solvent control group
miR-96−/− mice; intragastric
  efficacy of the 6 mg/kg-dose group compared with the 4 mg/kg-dose group: not better than that of the 4 mg/kg-dose group
[1]
  analgesic effect in clinical studies: does not exhibit desired analgesic effect

## NC(=O)[C@@H]1CC[C@H](c2ccc(OCc3ccccc3F)cc2)N1 [CNV1014802]
miR-96−/− mice; 20 mg/kg intragastric
  analgesic effect versus solvent control group: significant analgesic effects
miR-96−/− mice; 30 mg/kg intragastric
  analgesic effect versus solvent control group: significant analgesic effects
miR-96−/− mice; 40 mg/kg intragastric
  analgesic effect versus solvent control group: significant analgesic effects
miR-96−/− mice; intragastric
  dose group exhibiting the best analgesic effect: 30 mg/kg

## CC(C)(N)c1ncc(-c2ccc(OC(F)(F)F)cc2)[nH]1 [PF-04885614, 1-methyl-1-[4-(4-trifluoromethoxy-phenyl)-1H-imidazol-2-yl]-ethylamine]
miR-96−/− mice; 180 μg/kg intragastric
  analgesic effect versus solvent control group: significantly better than that of the solvent control group
miR-96−/− mice; 270 μg/kg intragastric
  analgesic effect versus solvent control group: significantly better than that of the solvent control group
miR-96−/− mice; intragastric
  dose group exhibiting the best analgesic effect: 0.18 mg/kg

## C[C@@H](C(N)=O)[C@H](N)c1nc2cc(C(C)(C)C)ccc2[nH]1 [PF-06305591, (αR, βS)-β-Amino-6-(1,1-dimethylethyl)-α-methyl-1H-benzimidazole-2-propanamide dihydrate]
miR-96−/− mice; 60 μg/kg intragastric
  analgesic effect versus solvent control group: significantly better than that of the solvent control group
miR-96−/− mice; 90 μg/kg intragastric
  analgesic effect versus solvent control group: significantly better than that of the solvent control group
miR-96−/− mice; intragastric
  dose group exhibiting the best analgesic effect: 0.06 mg/kg

## NCC1(CC(=O)O)CCCCC1 [Gabapentin]
miR-96−/− mice; 50 mg/kg intragastric
  effect on mechanical pain thresholds: significantly improve the mechanical pain thresholds

## N#Cc1cc(S(=O)(=O)Nc2ncns2)ccc1Oc1ccc(-c2cccc(C(F)(F)F)c2)cc1-c1ccnc(CNCCC2CCNCC2)c1 [PF-06456384, 3-cyano-4-[[3-[2-[[[2-(4-piperidinyl)ethyl]amino]methyl]-4-pyridinyl]-3′-(trifluoromethyl)[1,1′-biphenyl]-4-yl]oxy]-N-1,2,4-thiadiazol-5-yl-benzenesulfonamide trihydrochloride]
miR-96−/− mice; 1 mg/kg intragastric
  analgesic effect versus solvent control group: significant analgesic effects
miR-96−/− mice; 2 mg/kg intragastric
  analgesic effect versus solvent control group: significant analgesic effects
miR-96−/− mice; 3 mg/kg intragastric
  analgesic effect versus solvent control group: significant analgesic effects
miR-96−/− mice; intragastric
  dose group exhibiting the best analgesic effect: 2 mg/kg
